# Experiments:
# [1] = Cmax in Wistar rat at 10 mg/kg. po; assay type: ADME, organism-based; set-up: dose 10 mg/kg, route oral; settings: in vivo
# Procathepsin L = Procathepsin L (Homo sapiens, UniProt P07711); test: Inhibition of cathepsin L
# [2] = AUC in Wistar rat at 10 mg/kg, po; assay type: ADME, organism-based; set-up: dose 10 mg/kg, route oral; settings: plasma
# Cathepsin K = biological target: T1, Cathepsin K (Homo sapiens, UniProt P43235); test: Inhibition of cathepsin K
# T1 sequence (P43235 whole entry): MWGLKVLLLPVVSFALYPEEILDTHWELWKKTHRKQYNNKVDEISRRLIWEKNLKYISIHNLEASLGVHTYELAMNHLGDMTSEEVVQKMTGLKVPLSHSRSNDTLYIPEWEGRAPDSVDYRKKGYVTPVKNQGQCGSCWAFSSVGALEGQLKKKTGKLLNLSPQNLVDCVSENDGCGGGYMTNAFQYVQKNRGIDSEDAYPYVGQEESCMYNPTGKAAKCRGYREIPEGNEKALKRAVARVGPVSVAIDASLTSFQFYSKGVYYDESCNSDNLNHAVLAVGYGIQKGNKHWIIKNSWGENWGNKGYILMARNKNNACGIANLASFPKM
# [3] = Half life in Wistar rat at 10 mg/kg. po; assay type: ADME, organism-based; set-up: dose 10 mg/kg, route oral; settings: in vivo
# [4] = Tmax in Wistar rat at 10 mg/kg. po; assay type: ADME, organism-based; set-up: dose 10 mg/kg, route oral; settings: in vivo
# Cathepsin S = Cathepsin S (Homo sapiens, UniProt P25774)
# Cathepsin S, sequence (P25774 whole entry): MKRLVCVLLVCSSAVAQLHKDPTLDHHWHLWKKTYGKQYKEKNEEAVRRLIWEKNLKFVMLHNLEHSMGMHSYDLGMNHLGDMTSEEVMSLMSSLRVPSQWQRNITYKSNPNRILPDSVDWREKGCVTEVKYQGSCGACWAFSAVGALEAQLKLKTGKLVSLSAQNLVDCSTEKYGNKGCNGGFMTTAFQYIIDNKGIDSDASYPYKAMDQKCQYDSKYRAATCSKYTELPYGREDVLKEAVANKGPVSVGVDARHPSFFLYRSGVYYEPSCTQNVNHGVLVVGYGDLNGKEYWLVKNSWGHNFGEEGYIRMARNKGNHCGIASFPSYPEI
# Description: Inhibition of cathepsin S
# Procathepsin L, sequence (P07711 whole entry): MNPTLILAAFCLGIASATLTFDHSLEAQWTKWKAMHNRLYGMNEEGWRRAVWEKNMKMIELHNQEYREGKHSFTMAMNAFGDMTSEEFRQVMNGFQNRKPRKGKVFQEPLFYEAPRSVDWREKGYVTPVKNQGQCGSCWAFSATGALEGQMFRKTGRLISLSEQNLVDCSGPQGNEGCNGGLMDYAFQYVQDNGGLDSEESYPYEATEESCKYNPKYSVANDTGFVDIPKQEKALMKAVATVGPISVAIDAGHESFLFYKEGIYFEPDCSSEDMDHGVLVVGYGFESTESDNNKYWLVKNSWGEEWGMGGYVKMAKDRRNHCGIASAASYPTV
SMILES,Cmax [1] [nM],Ki (Procathepsin L) [nM],AUC [2] [µM·h],Ki (Cathepsin K) [nM],half-life [3] [h],Tmax [4] [h],Ki (Cathepsin S) [nM]
CC(C)[C@@H](CNc1ccc(OC(F)(F)F)cc1)NC(=O)[C@@H](CC(=O)N1CCOCC1)c1ccc(Cl)cc1,720,> 100000,2.82,> 100000,1.82,2,
COc1ccc([C@H](CC(=O)N2CCOCC2)C(=O)N[C@H](CNc2ccc(OC(F)(F)F)cc2)C(C)C)cc1,789,> 65000,2.04,> 30000,1.06,1,
C[C@@H](CNc1ccc(OC(F)(F)F)cc1)NC(=O)[C@H](CCC(C)(C)C)CC(=O)N1CCOCC1,,> 100000,,> 100000,,,
C[C@@H](CN1CCc2cc(F)ccc21)NC(=O)[C@@H](CC(=O)N1CCOCC1)Cc1ccccc1,,8860,,> 30000,,,> 24000
Cc1ccc([C@H](CC(=O)N2CCOCC2)C(=O)N[C@H](CNc2ccc(OC(F)(F)F)cc2)C(C)C)cc1,,> 100000,,> 30000,,,134
CC(C)[C@@H](CNc1ccc(OC(F)(F)F)cc1)NC(=O)[C@@H](CC(=O)N1CCOCC1)c1ccc(C(F)(F)F)cc1,946,> 100000,4.63,> 100000,2.26,2,43
O=C(C[C@H](CC1CCCCC1)C(=O)N1CCOCC1)NCCNc1ccc(F)cc1,,> 100000,,> 100000,,,> 100000
CC(C)[C@@H](CNc1ccc(OC(F)(F)F)cc1)NC(=O)[C@@H](CC(=O)N1CCOCC1)c1ccccc1C(F)(F)F,,> 100000,,> 100000,,,> 100000
C[C@@H](CN1CCc2cc(F)ccc21)NC(=O)[C@@H](CC(=O)N1CCOCC1)CC1CCCCC1,24,,0.048,,1.12,0.42,
O=C(N[C@H](CNc1ccc(OC(F)(F)F)cc1)C1CC1)[C@@H](CC(=O)N1CCOCC1)c1ccc(C(F)(F)F)cc1,,> 100000,,> 100000,,,616
O=C(NCCNc1ccc(F)cc1)[C@@H](CC(=O)N1CCOCC1)CC1CCCCC1,,> 30000,,> 30000,,,1370
O=C(NCCNc1ccc(F)cc1)[C@H](CC(=O)N1CCOCC1)CC1CCCCC1,,> 100000,,> 100000,,,> 100000
O=C(C[C@@H](CC1CCCCC1)C(=O)N1CCOCC1)NCCNc1ccc(F)cc1,,> 100000,,> 100000,,,1720
O=C(N[C@@H](CCc1ccccc1)CNc1ccc(OC(F)(F)F)cc1)[C@H](CCC1CCCC1)CC(=O)N1CCOCC1,,2310,,> 30000,,,200
O=C(NCCNc1ccc(OC(F)(F)F)cc1)[C@@H](CC(=O)N1CCOCC1)CC1CCCCC1,,> 30000,,> 100000,,,194
O=C(NCCN1CCc2cc(F)ccc21)[C@H](CC1CCCCC1)NC(=O)N1CCOCC1,140,,0.312,,1.12,0.33,
CC(C)[C@@H](CNc1ccc(OC(F)(F)F)cc1)NC(=O)[C@@H](CC(=O)N1CCOCC1)c1cccc(C(F)(F)F)c1,,> 30000,,> 100000,,,18500
C[C@@H](CNc1ccc(OC(F)(F)F)cc1)NC(=O)[C@@H](CC(=O)N1CCOCC1)c1ccc(C(F)(F)F)cc1,,> 100000,,> 100000,,,
O=C(NCCNc1ccc(OC(F)(F)F)cc1)[C@@H](CC(=O)N1CCOCC1)c1ccc(C(F)(F)F)cc1,,,,> 100000,,,
O=C(N[C@H](CNc1ccc(OC(F)(F)F)cc1)c1ccccc1)[C@@H](CC(=O)N1CCOCC1)CC1CCCCC1,815,3520,2.77,> 30000,1.22,2,62

# Results, then the compound that gave them:
Cmax [1] [nM],Ki (Procathepsin L) [nM],AUC [2] [µM·h],Ki (Cathepsin K) [nM],half-life [3] [h],Tmax [4] [h],Ki (Cathepsin S) [nM],SMILES
,> 100000,,2330,,,,C[C@@H](CNc1ccc(OC(F)(F)F)cc1)NC(=O)[C@@H](CC(=O)N1CCOCC1)CC(C)(C)C
,636,,1480,,,18,O=C(N[C@@H](CCc1ccccc1)CNc1ccc(OC(F)(F)F)cc1)[C@@H](CC(=O)N1CCOCC1)CC1CCCCC1
983,18900,2.78,24300,0.87,1.5,28,C[C@@H](CNc1ccc(OC(F)(F)F)cc1)NC(=O)[C@@H](CC(=O)N1CCOCC1)CC1CCCCC1
,267,,907,,,,CC[C@@H](CNc1ccc(OC(F)(F)F)cc1)NC(=O)[C@@H](CC(=O)N1CCOCC1)CC1CCCCC1
,,,5410,,,69,CS(=O)(=O)CC[C@H](CNc1ccc(OC(F)(F)F)cc1)NC(=O)[C@@H](CC(=O)N1CCOCC1)CC1CCCCC1
,588,,291,,,60,CC[C@@H](CNc1ccc(OC(F)(F)F)cc1)NC(=O)[C@H](CCc1ccccc1)CC(=O)N1CCOCC1
220,285,0.752,557,1.23,1.83,13,CCC[C@@H](CNc1ccc(OC(F)(F)F)cc1)NC(=O)[C@@H](CC(=O)N1CCOCC1)CC1CCCCC1
647,11500,1.91,11500,0.92,0.7,25,CC(C)[C@@H](CNc1ccc(OC(F)(F)F)cc1)NC(=O)[C@@H](CC(=O)N1CCOCC1)c1ccccc1
318,> 30000,0.806,3710,0.68,1,,C[C@@H](CNc1ccc(OC(F)(F)F)cc1)NC(=O)[C@@H](CC(=O)N1CCOCC1)CC1CCCC1
,,,1140,,,38,CC(C)[C@@H](CNc1ccc(OC(F)(F)F)cc1)NC(=O)[C@@H](CC(=O)N1CCOCC1)CC1CCCC1
,372,,184,,,27,CC(C)[C@@H](CNc1ccc(OC(F)(F)F)cc1)NC(=O)[C@H](CCc1ccccc1)CC(=O)N1CCOCC1
,,,2120,,,14,CC(C)[C@@H](CNc1ccc(OC(F)(F)F)cc1)NC(=O)[C@H](CCCc1ccccc1)CC(=O)N1CCOCC1
,,,260,,,5,CS(=O)(=O)CC[C@@H](CNc1ccc(OC(F)(F)F)cc1)NC(=O)[C@@H](CC(=O)N1CCOCC1)CC1CCCCC1
,,,710,,,37,O=C(N[C@@H](CCc1ccccc1)CNc1ccc(OC(F)(F)F)cc1)[C@@H](CC(=O)N1CCOCC1)c1ccccc1
,,,10500,,,261,O=C(N[C@H](CNc1ccc(OC(F)(F)F)cc1)c1ccccc1)[C@@H](CC(=O)N1CCOCC1)c1ccccc1
629,11500,1.87,11500,0.97,1.67,24,CC(C)[C@@H](CNc1ccc(OC(F)(F)F)cc1)NC(=O)[C@@H](CC(=O)N1CCOCC1)c1ccc(F)cc1
,> 30000,,3710,,,95,C[C@@H](CNc1ccc(OC(F)(F)F)cc1)NC(=O)[C@H](CCC1CCCCC1)CC(=O)N1CCOCC1
,2680,,217,,,12,CCC[C@@H](CNc1ccc(OC(F)(F)F)cc1)NC(=O)[C@@H](CC(=O)N1CCOCC1)CC1CCCC1
,,,> 26400,,,11,CC(C)[C@@H](CNc1ccc(OC(F)(F)F)cc1)NC(=O)[C@H](CCC1CCCC1)CC(=O)N1CCOCC1
241,,0.831,995,1.06,1.7,11,CC(C)[C@@H](CNc1ccc(OC(F)(F)F)cc1)NC(=O)[C@@H](CC(=O)N1CCOCC1)CC1CCCCC1

# — ChEMBL document CHEMBL1139902, “Synthesis and SAR of succinamide peptidomimetic inhibitors of cathepsin S” (Bioorg Med Chem Lett, 2007)
